Assay results as given in patent publication US11185499B2, “Multilayer thin film drug delivery device and methods of making and using the same” (The Regents of the University of California, priority 2011, dated 2021).

Legend:
[1] = Release of FITC-BSA protein from nanostructured PCL devices; type: physicochemical; conditions: nanostructured PCL devices (n=3), pore size 20-40 nm
Description: Multilayer thin film devices having pore sizes in the range of […]-40 nm were fabricated as described herein.

[2] = Payload calculations and safety consideration; conditions: device designed for delivery over 6 months, failure
Protocol: The loading requirements for a device are analyzed based upon a zero-order release profile that maintains concentration in the posterior of the eye for at least a 4 month period. For example, based on a 5 mm×5 mm thin-film with 20 nm pores, with a void space of 50% a maximal drug load in this device is 1.3 mg of lyophilized drug, with release rates as high 2 μg/day/mm^2 based on membrane experiments. Desired release rates depend on drug affinity, vitreous half-life, and target vitreous concentration. […] Complete dose dumping for a device designed for delivery over 6 months would produce systemic drug concentration of less than 3.4 ng/ml upon failure, which falls well below the 11-27 ng/ml threshold thought to inhibit VEGF by 50%. In addition, a multi-chambered reservoir (FIG. 10) minimizes the risk that the entire drug payload could be inadvertently dumped. Based upon conservative estimates of Lucentis© half-life in the vitreous humor, a device loaded with approximately 800 μg of drug is estimated to maintain therapeutic levels for a 6 month or longer period.

Substance | release rate [1] [µg/day] | time period of release [1] [days] | systemic drug concentration upon complete dose dumping [2]
FITC-BSA: FITC-BSA protein released from nanostructured PCL devices | 1 | 210 | –
ranibizumab: anti-VEGF formulation (Lucentis, Genentech, Inc.) | – | – | less than 3.4 ng/ml
